The test system of data set [1] is Salmonella typhimurium TA98. Nature of the data set: Bacterial reverse mutation assay, TA98. As to conditions: TA98, S9+, 1.0 μg/plate, positive control.
For data set [2], the system named is Salmonella typhimurium TA1535. Nature of the data set: Bacterial reverse mutation assay, TA1535. The conditions noted are these: TA1535, S9+, 3.0 μg/plate, positive control.
Data set [3] relates to Salmonella typhimurium TA1537. Kind of data set: Bacterial reverse mutation assay, TA1537. As to conditions: TA1537, S9+, 3.0 μg/plate, positive control.
Data set [4] has as its system Escherichia coli WP2uvrA (pKM101). Kind of data set: Bacterial reverse mutation assay, WP2uvrA (pKM101). As to conditions: S9+, 2.0 μg/plate, positive control.
The test system of data set [5] is Salmonella typhimurium TA100. Nature of the data set: Bacterial reverse mutation assay, TA100. As to conditions: TA100, S9+, 2.0 μg/plate, positive control.

Where “and” joins values, the source holds several entries; their conditions need not be identical. Identical values can stand only once.

Consider `Nc1ccc2cc3ccccc3cc2c1` [2-Aminoanthracene (2-AA), 2-Aminoanthracene], for which the “Mean revertant colony count” value is 362 and 440 in data set [1]; 101 in data set [2]; 129 and 220 in data set [3]; 462 and 545 in data set [4]; 592 and 838 in data set [5].

For the origin of these results see patent publication US11738063B2, “Pharmaceutical composition for preventing or treating neurodegenerative diseases which includes flower extract of Daphne genkwa or fractions thereof as active ingredient” (KOREA RESEARCH INSTITUTE OF BIOSCIENCE AND BIOTECHNOLOGY, priority 2016, dated 2023).
